Test system: brain proteome
Assay: Brain proteomics (DIA LC-MS/MS) after chronic NVS-PAK1-1 100 mg/kg BID PO vs vehicle in 5xFAD mice
Type: in vivo
Settings: for NES (gene set enrichment), NVS-PAK1-1 vs vehicle: Young Female
Procedure: A total of 91 brain samples were prepared from mice in this study and analyzed by mass spectrometry proteomics. One third of the mixed‐chopped left hemisphere tissue was homogenized in 8 M urea lysis buffer (8 M urea, 10 mM Tris, 100 mM NaH2PO4, pH 8.5) with HALT protease and phosphatase inhibitor cocktail (Thermo Fisher) and sonicated for three cycles consisting of 5 seconds of active sonication at 30% amplitude, followed by 15 seconds on ice. Samples were then centrifuged for 5 minutes at 15,000 g and the supernatant was transferred to a new tube. Protein concentration was determined by bicinchoninic acid (BCA) assay (Pierce). For protein digestion, 200 µg of each sample was aliquoted and volumes normalized with additional lysis buffer. Samples were reduced with 5 mM DTT at room temperature for 30 minutes, followed by 10 mM iodoacetamide (IAA) alkylation in the dark for another 30 minutes. Lysyl endopeptidase (Wako) at 1:25 (w/w) was added, and digestion allowed to proceed overnight. Samples were then 7‐fold diluted with 50 mM ammonium bicarbonate. Trypsin (Promega) was then added at 1:25 (w/w) and digestion proceeded overnight. The peptide solutions were acidified to a final concentration of 1% (vol/vol) FA and 0.1% (vol/vol) TFA and desalted with a 10 mg HLB column (Oasis). Each HLB column was first rinsed with 1 mL of methanol, washed with 1 mL 50% (vol/vol) acetonitrile (ACN), and equilibrated with 2 × 1 mL 0.1% (vol/vol) TFA. The samples were then loaded onto the column and washed with 2 × 1 mL 0.1% (vol/vol) TFA. Elution was performed with 0.5 mL 50% (vol/vol) ACN. Samples were split into 50 µL and 400 µL aliquots. Residuals from all samples were combined to create a global internal standard pool.
Samples were resuspended in an equal volume of loading buffer (0.1% FA, 0.03% TFA, 1% ACN) and analyzed by LC‐MS/MS. Peptide eluents (1 µg) were separated on a Water's CSH (15 cm × 150 µM internal diameter [ID] with 1.7 µm CSH resin) by a Dionex Ultimate 3000 RSLCnano (Thermo Fisher). Buffer A was water with 0.1% (vol/vol) formic acid, and buffer B was 80% (vol/vol) acetonitrile in water with 0.1% (vol/vol) FA. Elution was performed over a 30 minute gradient. The gradient was from 1% to 99% solvent B. Peptides were monitored on an Orbitrap Fusion Lumos mass spectrometer (Thermo Fisher). Each cycle consisted of one full scan (MS1) performed with an m/z range of 380 to 985 at a 60,000 resolution at standard settings and 30 data independent scans (DIA) in 1.5 seconds. The higher energy collision‐induced dissociation (HCD) tandem scans were collected at 30% collision energy with an isolation of 10 m/z, a resolution of 15,000, an AGC setting of 200% normalized AGC target, and a maximum injection time set to 40 ms.
Raw data files were converted to mzML format for downstream processing using ThermoRawFilerParser v.1.4.4.[30] The data were processed using Data‐Independent Acquisition by Neural Network (DIA‐NN) v.1.9.1.[31] A spectral library was generated using all canonical mouse proteins from UniProt and SwissProt (accessed September 24, 2024) and contaminants from the Common Repository of Adventitious Proteins (cRAP) database [https://www.thegpm.org/crap/]; these contaminant proteins were excluded from normalization and downstream analysis. DIA‐NN was run using parameters specified as follows: precursor charge was set from 1 to 4 and precursor m/z was set from 200 to 5000. Enzyme digestion was set to strict trypsin with 1 allowed missed cleavage, peptide length was set from 7 to 50, and peptide m/z was set from 150 to 3000. The maximum number of variable modifications was set to 3 and methionine oxidation was allowed as a variable modification. Cysteine carbamidomethylation was allowed as a fixed modification. MS1 and MS2 mass accuracy (in ppm) were set using autodetect and the scan window was set using autodetect. The false discovery rate (FDR) threshold was set to 1%. […]

CC(C)NC(=O)N1CC[C@H](NC2=Nc3cc(F)ccc3N(CC(F)F)c3ccc(Cl)cc32)C1 [NVS‐PAK1‐1, (S)‐3‐([2‐chloro‐5‐(2,2‐difluoroethyl)‐8‐fluoro‐5H‐dibenzo[b,e][1,4]diazepin‐11‐yl]amino)‐N‐isopropylpyrrolidine‐1‐carboxamide]
logFC, FAD5X_A_tx vs FAD5X_B_veh (ATP8, Aged M 5xFAD brain): -0.1292
logFC_NVS.PAK1.1_vs_vehicle (Acat2, Young F 5xFAD brain): -0.07095
logFC_NVS.PAK1.1_vs_vehicle (Acly, Young F 5xFAD brain): -0.0659
logFC_NVS.PAK1.1_vs_vehicle (Acly, Young M 5xFAD brain): -0.07659
logFC_NVS.PAK1.1_vs_vehicle (Agk, Young F 5xFAD brain): 0.08371
logFC_NVS.PAK1.1_vs_vehicle (Agl, Young F 5xFAD brain): -0.0869
logFC_NVS.PAK1.1_vs_vehicle (Aldh1l1, Young F 5xFAD brain): -0.1253
logFC_NVS.PAK1.1_vs_vehicle (Anxa6, Young M 5xFAD brain): -0.118
logFC_NVS.PAK1.1_vs_vehicle (App, Young F 5xFAD brain): -0.2576
logFC_NVS.PAK1.1_vs_vehicle (Armcx5, Young M 5xFAD brain): 0.3268
logFC_NVS.PAK1.1_vs_vehicle (Atl2, Aged F 5xFAD brain): -0.08745
logFC_NVS.PAK1.1_vs_vehicle (Atp2b4, Young M 5xFAD brain): 0.1099
logFC_NVS.PAK1.1_vs_vehicle (Atp5if1, Aged F 5xFAD brain): -0.5225
logFC_NVS.PAK1.1_vs_vehicle (Calr, Young F 5xFAD brain): -0.07235
logFC_NVS.PAK1.1_vs_vehicle (Cep170b, Young M 5xFAD brain): 0.1293
logFC_NVS.PAK1.1_vs_vehicle (Cfap61, Young F 5xFAD brain): -0.4846
logFC_NVS.PAK1.1_vs_vehicle (Cfl2, Young F 5xFAD brain): 0.1353
logFC_NVS.PAK1.1_vs_vehicle (Chordc1, Young F 5xFAD brain): -0.1408
logFC_NVS.PAK1.1_vs_vehicle (Ciapin1, Young M 5xFAD brain): -0.1789
logFC_NVS.PAK1.1_vs_vehicle (Cops5, Aged M 5xFAD brain): 0.1116
logFC_NVS.PAK1.1_vs_vehicle (Cox7a2, Aged F 5xFAD brain): -0.07809
logFC_NVS.PAK1.1_vs_vehicle (Dctn3, Young F 5xFAD brain): -0.07573
logFC_NVS.PAK1.1_vs_vehicle (Echdc1, Young F 5xFAD brain): -0.211
logFC_NVS.PAK1.1_vs_vehicle (Eef1b, Young F 5xFAD brain): -0.1102
logFC_NVS.PAK1.1_vs_vehicle (Eef2, Young F 5xFAD brain): -0.07944
logFC_NVS.PAK1.1_vs_vehicle (Ehd3, Aged M 5xFAD brain): 0.04696
logFC_NVS.PAK1.1_vs_vehicle (Eif1, Young F 5xFAD brain): -0.1062
logFC_NVS.PAK1.1_vs_vehicle (Elfn2, Aged M 5xFAD brain): -0.27
logFC_NVS.PAK1.1_vs_vehicle (Fasn, Young F 5xFAD brain): -0.08056
logFC_NVS.PAK1.1_vs_vehicle (Fdps.1, Young F 5xFAD brain): -0.1222
logFC_NVS.PAK1.1_vs_vehicle (Fn3krp, Aged M 5xFAD brain): 0.1203
NES (gene set enrichment), NVS-PAK1-1 vs vehicle (GO:0005740 mitochondrial envelope): 2.24
NES (gene set enrichment), NVS-PAK1-1 vs vehicle (GO:0005743 mitochondrial inner membrane): 2.303
NES (gene set enrichment), NVS-PAK1-1 vs vehicle (GO:0019866 organelle inner membrane): 2.289
NES (gene set enrichment), NVS-PAK1-1 vs vehicle (GO:0031966 mitochondrial membrane): 2.233
logFC_NVS.PAK1.1_vs_vehicle (Gap43, Young F 5xFAD brain): 0.1885
logFC_NVS.PAK1.1_vs_vehicle (Gnb1.1, Aged F 5xFAD brain): -0.6461
logFC_NVS.PAK1.1_vs_vehicle (Gng2, Young M 5xFAD brain): 0.102
logFC, FAD5X_A_tx vs FAD5X_B_veh (HC;Ighg2b, Aged M 5xFAD brain): 0.3576
logFC_NVS.PAK1.1_vs_vehicle (Hnrnpf, Aged F 5xFAD brain): -0.0585
logFC_NVS.PAK1.1_vs_vehicle (Hprt1, Young F 5xFAD brain): 0.09623
logFC_NVS.PAK1.1_vs_vehicle (Hsp90ab1, Young F 5xFAD brain): -0.08556
logFC_NVS.PAK1.1_vs_vehicle (Hsp90b1, Young F 5xFAD brain): -0.1385
logFC_NVS.PAK1.1_vs_vehicle (Hspa8.1, Young F 5xFAD brain): -0.05148
logFC_NVS.PAK1.1_vs_vehicle (Hsph1, Young F 5xFAD brain): -0.0893
logFC_NVS.PAK1.1_vs_vehicle (Idh1, Young F 5xFAD brain): -0.08685
logFC_NVS.PAK1.1_vs_vehicle (Idi1, Young F 5xFAD brain): -0.1582
logFC_NVS.PAK1.1_vs_vehicle (Kctd16, Young M 5xFAD brain): 0.1263
logFC_NVS.PAK1.1_vs_vehicle (Klc1, Young F 5xFAD brain): -0.06729
logFC_NVS.PAK1.1_vs_vehicle (Lcmt1, Young F 5xFAD brain): -0.08416
logFC_NVS.PAK1.1_vs_vehicle (Lcp1, Young F 5xFAD brain): -0.2692
logFC_NVS.PAK1.1_vs_vehicle (Lrfn4, Aged F 5xFAD brain): 0.3404
logFC_NVS.PAK1.1_vs_vehicle (Ly6h, Young M 5xFAD brain): 0.08528
logFC_NVS.PAK1.1_vs_vehicle (Map1lc3a, Young M 5xFAD brain): 0.1055
logFC_NVS.PAK1.1_vs_vehicle (Map7d2, Aged M 5xFAD brain): 0.1103
logFC_NVS.PAK1.1_vs_vehicle (Mark4, Young F 5xFAD brain): 0.2384
logFC_NVS.PAK1.1_vs_vehicle (Mib2, Aged M 5xFAD brain): -0.4263
logFC_NVS.PAK1.1_vs_vehicle (Mipep, Aged F 5xFAD brain): 1.596
logFC_NVS.PAK1.1_vs_vehicle (Myh10, Aged F 5xFAD brain): -1.404
logFC_NVS.PAK1.1_vs_vehicle (Mylk, Aged M 5xFAD brain): -1.455
logFC_NVS.PAK1.1_vs_vehicle (Nck2, Aged M 5xFAD brain): 0.1477
logFC_NVS.PAK1.1_vs_vehicle (Nherf1, Young F 5xFAD brain): -0.1106
logFC_NVS.PAK1.1_vs_vehicle (Nmd3, Young F 5xFAD brain): -0.95
logFC_NVS.PAK1.1_vs_vehicle (Nmt1, Young F 5xFAD brain): -0.1011
logFC_NVS.PAK1.1_vs_vehicle (Nomo1, Young F 5xFAD brain): -0.1733
logFC_NVS.PAK1.1_vs_vehicle (Nrdc, Aged M 5xFAD brain): -0.1746
logFC_NVS.PAK1.1_vs_vehicle (Ntm, Young M 5xFAD brain): 0.1007
logFC_NVS.PAK1.1_vs_vehicle (Pkm, Aged M 5xFAD brain): -0.04674
logFC_NVS.PAK1.1_vs_vehicle (Plpp3, Young F 5xFAD brain): -0.1143
logFC_NVS.PAK1.1_vs_vehicle (Plxna4, Young F 5xFAD brain): 0.1065
logFC_NVS.PAK1.1_vs_vehicle (Pnpo, Young F 5xFAD brain): 0.2
logFC_NVS.PAK1.1_vs_vehicle (Ppp1r21, Young F 5xFAD brain): -0.1088
logFC_NVS.PAK1.1_vs_vehicle (Ptgds, Young F 5xFAD brain): -0.128
logFC_NVS.PAK1.1_vs_vehicle (RTRAF, Young F 5xFAD brain): -0.06356
logFC_NVS.PAK1.1_vs_vehicle (Rab27b, Young F 5xFAD brain): 0.1779
logFC_NVS.PAK1.1_vs_vehicle (Rab33a, Aged M 5xFAD brain): -0.2639
logFC_NVS.PAK1.1_vs_vehicle (Rap2a, Young F 5xFAD brain): 0.09042
logFC_NVS.PAK1.1_vs_vehicle (Rasgef1a, Aged M 5xFAD brain): 0.8766
logFC_NVS.PAK1.1_vs_vehicle (Rbm4b, Aged M 5xFAD brain): -0.3664
logFC_NVS.PAK1.1_vs_vehicle (Robo2, Young M 5xFAD brain): 0.2982
logFC_NVS.PAK1.1_vs_vehicle (Rock2, Aged F 5xFAD brain): 0.0515
logFC_NVS.PAK1.1_vs_vehicle (Rpl34, Young F 5xFAD brain): -0.09945
logFC_NVS.PAK1.1_vs_vehicle (Rps3, Young F 5xFAD brain): -0.04356
logFC_NVS.PAK1.1_vs_vehicle (S100a1, Young F 5xFAD brain): -0.119
logFC_NVS.PAK1.1_vs_vehicle (Sec14l2, Young F 5xFAD brain): -0.1884
logFC_NVS.PAK1.1_vs_vehicle (Senp3, Young M 5xFAD brain): -0.3344
logFC_NVS.PAK1.1_vs_vehicle (Septin2, Young F 5xFAD brain): -0.1026
logFC_NVS.PAK1.1_vs_vehicle (Septin3, Young F 5xFAD brain): 0.07371
logFC_NVS.PAK1.1_vs_vehicle (Serpinb6, Young F 5xFAD brain): -0.1362
logFC_NVS.PAK1.1_vs_vehicle (Sgip1, Young M 5xFAD brain): 0.06159
logFC_NVS.PAK1.1_vs_vehicle (Snw1, Aged F 5xFAD brain): -0.2022
logFC_NVS.PAK1.1_vs_vehicle (Spag9, Aged F 5xFAD brain): -0.08904
logFC_NVS.PAK1.1_vs_vehicle (Stom, Aged F 5xFAD brain): -0.4369
logFC_NVS.PAK1.1_vs_vehicle (Stom, Young M 5xFAD brain): -0.67
logFC_NVS.PAK1.1_vs_vehicle (Stxbp5, Aged M 5xFAD brain): -0.08024
logFC_NVS.PAK1.1_vs_vehicle (Syngr1, Young M 5xFAD brain): 0.07489
logFC_NVS.PAK1.1_vs_vehicle (Sypl1, Aged M 5xFAD brain): 0.2577
logFC_NVS.PAK1.1_vs_vehicle (Tbc1d24, Young F 5xFAD brain): 0.08048
logFC_NVS.PAK1.1_vs_vehicle (Tkfc, Aged M 5xFAD brain): -0.1852
logFC_NVS.PAK1.1_vs_vehicle (Tom1l2, Aged M 5xFAD brain): 0.07172
logFC_NVS.PAK1.1_vs_vehicle (Txndc16, Young M 5xFAD brain): -1.405
logFC_NVS.PAK1.1_vs_vehicle (Usp54, Aged M 5xFAD brain): 2.652
logFC_NVS.PAK1.1_vs_vehicle (Vasp, Young F 5xFAD brain): 0.6308
logFC_NVS.PAK1.1_vs_vehicle (Vps33b, Aged M 5xFAD brain): -0.1328
logFC_NVS.PAK1.1_vs_vehicle (Wasf3, Young M 5xFAD brain): 0.12
logFC_NVS.PAK1.1_vs_vehicle (Zfp967;Zfp968, Young F 5xFAD brain): -1.398

Source: publication PMC12741935 (Alzheimer's & Dementia, 2025)
